Assay results reported in patent US7223783B2, “Indolinone derivatives” (Theravance, Inc., priority 2001, dated 2007).
Where two headings read alike, the source gives them in different places.

How the values were obtained:
[1] = target: T1, Flt-3 ITD (Homo sapiens, UniProt P36888, INS600HVDFREYEYD); test: Proliferation and viability assay (MTT), cytotoxicity assay; type: cell-based; settings: MV4-11 AML cells expressing Flt-3 ITD, 48 hours, highest concentration tested 10 μm
T1 construct: MV4-11 cells express Flt-3 ITD; endogenous in cells; host or cells: MV4-11
T1 sequence (P36888 with tags, fused parts or gaps INS600HVDFREYEYD): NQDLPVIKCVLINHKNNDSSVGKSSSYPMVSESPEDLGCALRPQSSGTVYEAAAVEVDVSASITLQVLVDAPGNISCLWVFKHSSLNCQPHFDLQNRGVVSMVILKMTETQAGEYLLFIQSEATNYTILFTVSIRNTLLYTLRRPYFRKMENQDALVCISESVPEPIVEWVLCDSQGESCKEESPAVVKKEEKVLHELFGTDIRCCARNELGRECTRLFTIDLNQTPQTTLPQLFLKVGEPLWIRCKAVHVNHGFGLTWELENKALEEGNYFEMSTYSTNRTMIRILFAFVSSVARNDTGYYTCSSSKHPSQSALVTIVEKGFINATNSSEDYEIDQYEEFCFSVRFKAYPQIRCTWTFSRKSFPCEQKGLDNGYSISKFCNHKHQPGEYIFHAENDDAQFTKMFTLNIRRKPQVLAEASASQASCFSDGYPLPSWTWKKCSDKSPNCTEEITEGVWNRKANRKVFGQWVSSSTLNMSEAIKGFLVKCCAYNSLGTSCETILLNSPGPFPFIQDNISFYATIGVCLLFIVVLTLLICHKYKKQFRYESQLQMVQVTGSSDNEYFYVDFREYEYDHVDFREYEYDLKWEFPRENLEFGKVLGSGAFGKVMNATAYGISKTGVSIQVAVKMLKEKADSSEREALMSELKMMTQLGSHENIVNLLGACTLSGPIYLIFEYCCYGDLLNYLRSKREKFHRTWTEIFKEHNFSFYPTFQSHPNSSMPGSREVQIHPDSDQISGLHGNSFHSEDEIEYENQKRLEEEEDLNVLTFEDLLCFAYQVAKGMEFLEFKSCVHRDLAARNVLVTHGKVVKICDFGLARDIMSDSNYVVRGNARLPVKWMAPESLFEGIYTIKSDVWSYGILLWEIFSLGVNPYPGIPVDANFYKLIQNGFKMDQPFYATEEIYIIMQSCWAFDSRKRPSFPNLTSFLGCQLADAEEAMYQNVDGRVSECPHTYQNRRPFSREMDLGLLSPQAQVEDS

[2] = target: T2, VEGFR (Homo sapiens, UniProt P35968); test: Ca2+ release assay (FLIPR) in HUVECs; type: cell-based; settings: VEGF 40 ng/mL, highest concentration tested 1 μm
T2 construct: against the VEGFR in the FLIPR assay, HUVECs (Walkersville, Md.) were used; endogenous in cells; host or cells: HUVEC
T2 sequence (P35968 20-1356): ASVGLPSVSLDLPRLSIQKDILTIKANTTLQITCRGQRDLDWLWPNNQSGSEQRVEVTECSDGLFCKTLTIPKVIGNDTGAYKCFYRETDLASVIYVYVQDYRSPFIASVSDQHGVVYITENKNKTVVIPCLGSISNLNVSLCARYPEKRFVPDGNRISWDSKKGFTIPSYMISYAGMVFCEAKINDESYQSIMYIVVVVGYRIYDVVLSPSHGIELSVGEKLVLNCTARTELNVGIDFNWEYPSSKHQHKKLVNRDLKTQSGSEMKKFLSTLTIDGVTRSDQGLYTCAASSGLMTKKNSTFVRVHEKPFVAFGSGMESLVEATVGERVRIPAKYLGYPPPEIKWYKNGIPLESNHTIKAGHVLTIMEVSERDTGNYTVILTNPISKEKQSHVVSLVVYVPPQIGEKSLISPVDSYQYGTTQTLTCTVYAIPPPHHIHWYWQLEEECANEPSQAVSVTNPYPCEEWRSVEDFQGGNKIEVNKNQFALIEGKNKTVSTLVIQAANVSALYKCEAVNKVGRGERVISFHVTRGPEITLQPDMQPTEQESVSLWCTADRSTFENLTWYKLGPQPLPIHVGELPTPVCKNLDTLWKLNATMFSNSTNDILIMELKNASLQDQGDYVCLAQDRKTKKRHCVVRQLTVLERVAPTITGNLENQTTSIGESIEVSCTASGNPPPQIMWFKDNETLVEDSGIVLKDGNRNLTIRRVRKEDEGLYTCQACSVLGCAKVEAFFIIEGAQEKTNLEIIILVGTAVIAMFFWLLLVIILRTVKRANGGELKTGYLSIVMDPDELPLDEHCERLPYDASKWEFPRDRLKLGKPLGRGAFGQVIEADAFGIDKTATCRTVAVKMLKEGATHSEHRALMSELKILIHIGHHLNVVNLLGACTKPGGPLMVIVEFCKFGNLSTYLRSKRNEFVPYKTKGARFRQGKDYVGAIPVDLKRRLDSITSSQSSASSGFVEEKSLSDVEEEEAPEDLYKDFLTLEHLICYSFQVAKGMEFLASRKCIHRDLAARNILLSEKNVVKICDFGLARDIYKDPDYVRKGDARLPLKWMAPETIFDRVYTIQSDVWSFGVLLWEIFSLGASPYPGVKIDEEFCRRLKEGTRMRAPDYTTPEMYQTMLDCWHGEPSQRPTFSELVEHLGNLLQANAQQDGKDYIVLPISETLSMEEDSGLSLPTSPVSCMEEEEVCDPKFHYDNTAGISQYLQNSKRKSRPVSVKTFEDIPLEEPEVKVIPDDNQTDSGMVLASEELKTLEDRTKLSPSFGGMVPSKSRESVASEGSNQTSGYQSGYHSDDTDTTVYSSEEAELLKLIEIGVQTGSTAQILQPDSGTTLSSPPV

[3] = target: T3, PDGFR (Homo sapiens, UniProt P09619); test: Ca2+ release assay (FLIPR) in HEK cell line expressing human PDGFR; type: cell-based; set-up: expressed in transfected cells; host or cells: HEK; settings: HEK cells expressing human PDGFR, PDGF 40 ng/mL
T3 sequence (P09619 33-1106): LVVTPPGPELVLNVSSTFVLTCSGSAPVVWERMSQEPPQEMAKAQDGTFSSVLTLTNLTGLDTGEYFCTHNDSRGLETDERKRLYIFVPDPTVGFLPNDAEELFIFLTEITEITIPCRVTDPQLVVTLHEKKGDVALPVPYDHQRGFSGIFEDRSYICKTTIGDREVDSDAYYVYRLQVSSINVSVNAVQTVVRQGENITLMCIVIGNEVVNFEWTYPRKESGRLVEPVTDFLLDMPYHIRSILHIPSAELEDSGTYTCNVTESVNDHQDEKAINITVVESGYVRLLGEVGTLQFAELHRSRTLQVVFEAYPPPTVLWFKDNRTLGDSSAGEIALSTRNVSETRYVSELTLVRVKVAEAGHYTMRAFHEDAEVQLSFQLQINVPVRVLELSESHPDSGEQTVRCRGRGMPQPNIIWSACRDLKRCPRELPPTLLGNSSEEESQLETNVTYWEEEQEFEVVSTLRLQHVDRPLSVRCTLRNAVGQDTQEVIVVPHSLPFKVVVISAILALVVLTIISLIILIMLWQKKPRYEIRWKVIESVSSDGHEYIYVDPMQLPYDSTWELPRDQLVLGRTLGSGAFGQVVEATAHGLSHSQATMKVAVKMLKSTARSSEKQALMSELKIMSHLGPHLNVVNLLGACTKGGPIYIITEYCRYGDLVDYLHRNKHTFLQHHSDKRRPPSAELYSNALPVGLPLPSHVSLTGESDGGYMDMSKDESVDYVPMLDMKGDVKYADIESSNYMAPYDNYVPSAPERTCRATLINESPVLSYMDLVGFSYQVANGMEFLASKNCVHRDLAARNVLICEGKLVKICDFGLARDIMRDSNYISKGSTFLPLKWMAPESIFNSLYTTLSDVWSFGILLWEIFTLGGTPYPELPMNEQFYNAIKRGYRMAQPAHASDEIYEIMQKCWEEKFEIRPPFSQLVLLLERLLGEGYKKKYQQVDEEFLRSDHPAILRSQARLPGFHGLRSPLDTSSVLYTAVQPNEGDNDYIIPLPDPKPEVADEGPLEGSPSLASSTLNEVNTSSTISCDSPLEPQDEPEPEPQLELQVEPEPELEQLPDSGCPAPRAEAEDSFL

[4] = Pharmacokinetics in male Sprague Dawley rats; type: in vivo, rat
Protocol: To evaluate pharmacokinetics, male Sprague Dawley rats (CD strain, Charles River Laboratories, Wilmington, Mass.) were dosed with test compounds via intravenous (IV) administration, at 1 mg/kg concentration, and oral (PO) administration, at 10 mg/kg concentration. Blood samples were collected from animals pre-dose, and at 2, 5, 15, and 30 minutes, and at 1, 2, 4, 6, 8, and 24 hours post-dose. Plasma concentrations were determined by liquid chromatography-mass spectrometry (LC-MS) (MDS SCIEX API 4000, Applied Biosystems, Foster City, Calif.). Standard pharmacokinetic parameters were assessed by non-compartmental methods using the WinNonlin Version 3.2 software package (Pharsight, Mountain View, Calif.). Oral bioavailability was determined as the ratio of the area under the curve (AUC) in the graph of plasma concentration versus time for PO administration to the corresponding quantity for IV administration.

[5] = Solubility in water; type: physicochemical
[6] = system: receptor tyrosine kinases PDGFR, c-Kit, VEGFR and Flt-3; test: One or more of the FLIPR, MTT and IP/Western whole cell assays; type: cell-based
Protocol: In order to determine the IC50 of test compounds against the VEGFR in the FLIPR assay, HUVECs (Walkersville, Md.) were used. For the determination of IC50s against the PDGFR, a HEK cell line were used that expresses the human PDGFR. 40–50000 cells per well were plated in a 96 well plate. The cells were incubated for 3–4 hours to adhere to the plate. Subsequently, the cells were washed twice in FLIPR buffer (1×HBS, 2 mM CaCl, 10 mM HEPES, pH7.4, 2.5 mM Probenecid, 0.1% BSA). After the second wash 50 μL of the Ca^2+ sensitive dye FLUO-3 (FLUO-3 (AM) TEF Labs, 50 μg in 10 mL FLIPR buffer) was added to the remaining 50 μL buffer in each well. After loading the cells for one hour, the cells were washed twice and the test compounds were added in 50 μL as a 2× solution to the 50 μL of buffer in each well. The cells were incubated with the compounds for 30 minutes and then VEGF (40 ng/mL, BioSource International) for the VEGFR or PDGF (40 ng/mL, BioSource International) for the PDGFR was added. The change in fluorescence intensity was measured in a Fluorometric Image Plate Reader (FLIPR) (Molecular Devices).
The inhibition of mutant Flt-3 ITD is expected to affect the proliferation and viability of AML cells with this mutation. […] The plate was incubated at 37 degrees Celsius for 24 hours and, then, the optical density of the wells was determined spectrophotometrically at 550 nm. […]

[7] = target: T3, PDGFR; test: Immunoprecipitation/Western (IP/Western) receptor autophosphorylation; type: cell-based; set-up: expressed in transfected cells; host or cells: HEK PDGFR cell line; settings: Immunoprecipitation/Western (IP) assay, HEK PDGFR cell line; highest concentration tested 1 μm
Protocol: Immunoprecipitation/Western (IP/Western)
The binding of growth factors to receptor tyrosine kinases like Flt-3 or PDGFR leads to the autophosphorylation of the receptors. The inhibition of autophosphorylation is the objective pursued with kinase inhibitors. By performing an IP/Western experiment the level of receptor autophosphorylation can be assessed directly.
5×10^6 cells (HEK PDGFR cell line for PDGFR, HEK c-Kit for c-Kit, and THP-1, HL-60 or MV4-11 for Flt-3) were incubated for 30 minutes in 2.5 mL of culture media with a defined concentration of test compound. In order to stimulate receptor autophosphorylation, growth factor (PDGF, SCF, or Flt-3 ligand respectively, 50 ng/mL, Biosource International, Camarillo, Calif.) was added for 5 minutes. The cells were then centrifuged and lysed in 500 μL lysis buffer (50 mM Tris pH 7.4, 1% NP-40, 150 mM NaCl, 1 mM EDTA, 1 mM Na3V04). The lysate is centrifuged and 10 μL of antibody against the respective receptor was added to the supernatant (anti-PDGFR (P20), anti-c-Kit (C-19), and anti-Flt-3 (S18), Santa Cruz Biotechnology, Inc.). The immunocomplexes were isolated with Protein G beads (Sigma, St. Louis, Mo.) and PAGE was performed. A Western Blot was done using an antibody against phospho-tyrosine residues (4G10, Upstate Biotechnology, Lake Placid, N.Y.). The intensity of the phospho-tyrosine signal corresponding to various drug concentrations provides a way to determine the IC50 of the test compound for the inhibition of autophosphorylation.

[8] = target: T4, Flt-3 (Homo sapiens, UniProt P36888); settings: Abstract 497, O'Farrell et al., ASH 2001; cited from earlier work
T4 sequence (P36888 27-993): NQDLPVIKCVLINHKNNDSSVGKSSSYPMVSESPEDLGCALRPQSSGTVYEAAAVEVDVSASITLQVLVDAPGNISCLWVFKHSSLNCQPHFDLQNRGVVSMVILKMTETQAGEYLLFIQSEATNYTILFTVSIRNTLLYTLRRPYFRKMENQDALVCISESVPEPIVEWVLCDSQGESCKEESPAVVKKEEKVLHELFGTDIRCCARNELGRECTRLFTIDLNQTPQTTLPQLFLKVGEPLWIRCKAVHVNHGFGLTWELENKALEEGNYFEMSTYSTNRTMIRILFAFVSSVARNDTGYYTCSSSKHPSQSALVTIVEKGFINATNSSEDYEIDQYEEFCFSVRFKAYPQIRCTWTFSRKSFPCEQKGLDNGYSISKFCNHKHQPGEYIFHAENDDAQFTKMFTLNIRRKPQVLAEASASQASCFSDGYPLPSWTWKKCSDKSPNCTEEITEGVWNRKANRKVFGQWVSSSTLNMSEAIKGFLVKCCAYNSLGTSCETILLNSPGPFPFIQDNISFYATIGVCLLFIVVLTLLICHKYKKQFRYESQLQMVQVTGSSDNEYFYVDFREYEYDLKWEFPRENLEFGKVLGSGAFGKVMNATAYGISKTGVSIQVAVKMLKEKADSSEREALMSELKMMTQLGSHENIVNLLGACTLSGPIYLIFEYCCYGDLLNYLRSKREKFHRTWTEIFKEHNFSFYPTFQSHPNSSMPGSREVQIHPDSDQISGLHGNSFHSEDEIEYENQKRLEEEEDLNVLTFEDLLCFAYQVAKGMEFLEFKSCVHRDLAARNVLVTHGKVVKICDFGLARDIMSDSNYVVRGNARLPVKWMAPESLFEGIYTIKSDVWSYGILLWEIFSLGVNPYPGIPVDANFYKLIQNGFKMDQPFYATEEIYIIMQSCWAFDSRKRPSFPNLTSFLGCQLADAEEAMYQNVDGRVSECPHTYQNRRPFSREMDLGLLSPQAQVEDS

[9] = prior art statement; cited from earlier work
[10] = upon oral and intravenous administration; cited from earlier work

SMILES | EC50 [1] [nM] | Flt-3 EC50 [1] | IC50 [2] [nM] | VEGFR IC50 [2] | IC50 [3] [nM] | PDGFR IC50 [3] | bioavailability ([4]; male, Sprague-Dawley, rat, plasma, oral, 10 mg/kg) [%] | Absorption on oral administration ([4]; oral administration) | Solubility in water [5] | Inhibition of one or more of PDGFR, c-Kit, VEGFR and Flt-3 [6] | IC50 [7] [nM] | PDGFR IC50 [7] | Ability to inhibit the receptor tyrosine kinase Flt-3 [8] | Solubility in water [9] | bioavailability [10]
CCN1CCN(C(=O)CCc2c(C)[nH]c(C=C3C(=O)Nc4ccccc43)c2C)CC1.O=C(O)C(F)(F)F [Example 22, 3-[3,5-dimethyl-4-[3-oxo-3-(4-ethyl)piperazin-1-ylpropyl]-1H-pyrrol-2-ylmethylene]-1,3-dihydroindol-2-one, trifluoroacetate] | 220 | sub-micromolar activity | 30 | sub-micromolar activity | 90 | sub-micromolar activity |  |  |  |  |  |  |  |  | 
Cc1[nH]c(C=C2C(=O)Nc3ccccc32)c(C)c1CCC(=O)N1CCNCC1.O=C(O)C(F)(F)F [Example 1, 3-[3,5-dimethyl-4-(3-oxo-3-piperazin-1-yl-propyl)-1H-pyrrol-2-ylmethylene]-1,3-dihydroindol-2-one, trifluoroacetate] | 240 | sub-micromolar activity | 20 | sub-micromolar activity |  |  | 50.6 | excellent absorption | high solubility in water | highly potent and selective inhibitor | 30 | sub-micromolar activity |  |  | 
Cc1[nH]c(C=C2C(=O)Nc3ccccc32)c(C)c1CCC(=O)O [SU6668, 3-[2,4-dimethyl-5-(2-oxo-1,2-dihydroindol-3-ylidenemethyl)-1H-pyrrol-3-yl]propionic acid, reference compound] |  | No activity* |  | No activity** |  |  |  |  |  |  |  | No activity**^# | lack the ability |  | 
Cc1cc(C)c(/C=C2\C(=O)Nc3ccccc32)[nH]1 [SU5416] |  |  |  |  |  |  |  |  |  |  |  |  |  | poor solubility in water | low bioavailability
